Reference: patent US8809389B2, “Substituted alkynyl phenoxy compounds as new synergists in pesticidal compositions” (Endura S.p.A., priority 2009, dated 2014)
“And” between values parts separate entries of the source, which are not always exact repeats. Identical values can stand only once.

What was measured:
[1] = biological target: T1, purified resistance-associated esterase (E4) (Myzus persicae, UniProt P35501); assay: Esterase interference assay (indirect determination of esterase inhibition); format: biochemical; conditions: for Esterase protection (%) after pre-incubation with compound: no esterase = 0%, uninhibited E4 = 100%; for Reduction of esterase protection, comparison in words: E4 esterase interference assay, Examples 13 and 16
T1 construct: 5 g of aphids (stored at −20° C.) were homogenised in 0.02 M phosphate buffer pH 7.0; from tissue; host or cells: whole Myzus persicae aphids, clone 794JZ; homogenate purified over G-25 and DEAE Sepharose Fast Flow
T1 sequence (P35501 24-552): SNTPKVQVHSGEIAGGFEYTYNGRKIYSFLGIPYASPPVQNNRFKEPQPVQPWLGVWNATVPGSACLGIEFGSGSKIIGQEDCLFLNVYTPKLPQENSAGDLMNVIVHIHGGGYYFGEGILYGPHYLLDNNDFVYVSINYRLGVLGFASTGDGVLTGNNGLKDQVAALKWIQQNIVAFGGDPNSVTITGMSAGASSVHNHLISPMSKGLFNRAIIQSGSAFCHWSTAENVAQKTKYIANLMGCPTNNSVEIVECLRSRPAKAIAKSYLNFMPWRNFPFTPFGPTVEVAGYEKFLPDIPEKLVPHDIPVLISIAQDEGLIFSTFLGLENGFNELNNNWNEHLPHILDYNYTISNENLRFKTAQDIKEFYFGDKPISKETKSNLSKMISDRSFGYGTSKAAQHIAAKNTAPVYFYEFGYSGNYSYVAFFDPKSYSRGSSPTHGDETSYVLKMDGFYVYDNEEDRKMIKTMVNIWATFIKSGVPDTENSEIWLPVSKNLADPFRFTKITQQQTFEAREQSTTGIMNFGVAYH
Text: Measuring the in vitro inhibition is not straight forward, as synergists may bind to a site other than the active site.
The esterase used was the well-characterised resistance associated esterase purified from M. persicae, E4, (aphid clone: 794JZ) as per Devonshire (1977) with some modifications(Devonshire A L, The properties of a carboxylesterase from the peach-potato aphid, Myzus persicae (Sulz.) and its role in conferring insecticide resistance. Biochem J 167: 675-683 (1977)). Briefly, 5 g of aphids (stored at −20° C.) were homogenised in 0.02 M phosphate buffer pH 7.0 and centrifuged at 20 000 g for 10 min. The supernatant was passed through a G-25 column using 0.02M Tris/HCl, pH 8.5 buffer. Unretarded fractions containing esterase activity were further chromatographed through DEAF Sepharose Fast Flow (Amersham Biosciences) and eluted with a linear 0-0.35 M NaCl gradient in 500 ml of Tris/HCl as above. Fractions containing carboxylesterase activity in the form of E4 were concentrated, desalted, and buffer exchanged to 0.02 M phosphate pH 7.0 for storage.
Interactions of the purified resistance-associated esterase (E4) with Compound of Example 2, Compound of Example 3, Compound of Example 4, Compound of Example 9 and Compound of Example 11 were performed using the ‘esterase interference assay’, as described by Khot et al., with some modifications. Devonshire A L, The properties of a carboxylesterase from the peach-potato aphid, Myzus persicae (Sulz.) and its role in conferring insecticide resistance. Biochem J 167: 675-683 (1977)). Briefly, stock solutions of novel synergists (3 mM in acetone) were pre-incubated with pure E4, to give a final concentration of 0.03 mM, for 16 h at 4° C. Aliquots (15 μl ) of E4, E4+Compound of Example 2, E4+Compound of Example 3, E4+Compound of Example 4, E4+Compound of Example 9 and E4+Compound of Example 11 were incubated for 1 h with 60 μl of serial dilutions of azamethiphos in 0.02M phosphate buffer, pH 7, in separate wells of a NUNC microplate. Aliquots (25 p1) of house fly head homogenate (source of AChE) were added to each well and incubated for 15 minutes at room temperature. E4 in acetone and buffer only served as the positive and the negative controls respectively. AChE activity was measured at 405 nm using a Tmax kinetic microplate reader (Molecular Devices, Menlo Park, Calif.). Readings were taken automatically for 10 min at 10 s intervals. The rate (mOD min^−1) was calculated by the integrated software, Softmax Pro 4.6. All treatments were performed in triplicate.
No added esterase is giving 0% esterase protection and uninhibited esterase (E4) is giving 100% protection.
The materials and procedure as stated in Example 13, paragraphs 13.1, 13.1.2, 13.1.2.1 and 13.1.2.2. have been used and the following results have been obtained: […]

Myzus persicae = assay: Topical application bioassay on aphid clones: imidacloprid with or without synergist pre-treatment; conditions: for RF, resistance factor (LC50 resistant / LC50 susceptible population): imidacloprid; for LC50 (lethal concentration of imidacloprid to kill 50% of the population): imidacloprid alone, topical, scored 72 h
Procedure: Aphid clones were reared on Chinese cabbage (Brassica rapa L. var. Pekinensis c.v Wong Bok) (Brassicaceae) leaves held in small plastic box-cages maintained at 18±2° C. with a 16:8 h light:dark photoperiod (Blackman R L, Variation in the photoperiodic response within natural populations of Myzus persicae (Sulzer). Bull Ent Res 60: 533-546 (1971)).
Clone 4106A is a laboratory insecticide-susceptible standard2 . […] Both aphid clones have been established from single parthenogenetic M. persicae females (Foster S P, Denholm I, Thompson R, Poppy G M, Powell W, Reduced response of insecticide-resistant aphids and attraction of parasitoids to alarm pheromone; a potential fitness trade-off. Bull Ent Res 95: 37-46 (2005)).
12.1.2 Topical Application Bioassay with 5191A Aphid Clone Young apterae were transferred to the abaxial surface of Chinese cabbage leaf discs (10 adults per leaf disc, at least 3 replicates per concentration) held on 1% agar in plastic containers (4 cm in diameter). The upper edge of each container was coated with Fluon (Whitford Plastics, UK) to prevent subsequent aphid escape from the leaf surface. After allowing 2 h for the aphids to settle, each was dosed with 0.25 μl of either 1 g L^−1 Compound of Example 3 dissolved in acetone or acetone only. After 4 h aphids were further treated with 0.25 μl imidacloprid in acetone (96% AR) using a
Burkard microapplicator (Burkard, Rickmansworth, UK). Controls were treated with acetone only. Treated aphids were stored at 18±2° C. and 16 h light: 8 h dark photoperiod. All bioassays were scored at the endpoint of 72 h after treatment. Adults incapable of co-ordinated movement (after gentle touching with a paint brush if necessary) were scored as dead. All bioassays were completed in triplicate.

[2] = system: pollen beetle, Meligethes aeneus; assay: Discriminating dose bioassay: α-cypermethrin in mixture with synergist; format: in vivo; conditions: Brassicogethes aeneus; for mortality at 0.3 ppm: 0.3 ppm α-cypermethrin alone
Procedure: (§1) Two pyrethroid resistant populations originating from two different areas in Poland ‘Rogalin'and lebork’ were collected in July 2008. A putative susceptible population, UK population, was also collected in July 2008 in Hertfordshire, UK. All populations were collected from oilseed rape contained adults only and were kept at room temperature before assays were performed.
Bioassays incorporating the compounds (Compound of Example 2 and Compound of Example 3) dissolved in acetone, were carried out using a diagnostic concentration of α-cypermethrin derived from the above full dose response bioassays in a mixture of 0.01 g L^−1 of the compounds. The concentration of α-cypermethrin used for the discriminating dose bioassays was 0.3 ppm α-cypermethrin for the two polish populations, Rogalin and Lebork and 0.03 ppm α-cypermethrin for UK population. Vials treated with the compounds only, dissolved in acetone and acetone only were used as controls. Ten to 15 replicates were used for each treatment depending on insect numbers within the population. Compounds concentrations chosen conferred no mortality in preliminary bioassays.
(§2) Treated vials including the pollen beetles were stored in constant environment facilities at 18±2° C. and 16L: 8D. All bioassays were scored at an endpoint of 24 h after exposure to the insecticide. Insects incapable of coordinated movement (after gentle touching with a pencil brush if necessary) were scored as dead.

[3] = system: pollen beetle, Meligethes aeneus; assay: Full dose response bioassay (α-cypermethrin), coated glass vials, IRAC method no 11; format: in vivo; conditions: for LC50 (lethal concentration of α-cypermethrin to kill 50% of the population): 24 h
Procedure: as §1
To characterise the response of the 3 above pollen beetle populations against α-cypermethrin full dose response bioassays were carried out. The bioassay method used was based on the method recommended by the Insecticide Resistance Action Committee (IRAC method no 11). Briefly, glass vials (5.7 cm height and 2.3 cm diameter) were coated with 0.5 ml of a serial dilutions of insecticide, dissolved in acetone, (α-cypermethrin) and rolled upon a blood-roller (Luckham Multimix Major, Denley Instruments Ltd) at room temperature until the solutions had completely evaporated. Five to 20 non-sexed adult pollen beetles were placed into a vial for each replicate and the top loosely closed with a screw-cap. Three replicates were used at each insecticide concentration, 7 concentrations in all. Vials treated with acetone only were used as controls.
as §2

[4] = Table 2 (Example 13), 0.03 mM compound pre-incubated with E4 16 h at 4° C.
[5] = second 'TABLE 3' (Example 16), procedure as Example 13

C#CCOc1ccc2c(c1)OCO2 [Example 1, 5-(propargyloxy)-benzo[1,3]dioxole, reference compound]
Esterase protection (%) after pre-incubation with compound [1, 4]: 63.9%
Esterase protection (%) after pre-incubation with compound [1, 5]: 63.90%

C#CCOc1cc2c(cc1CCC)OCO2 [Example 4, 5-(propargyloxy)-6-propyl-benzo[1.3]dioxole]
Reduction of esterase protection, comparison in words [1]: worse activity than the compound of Example 3
Esterase protection (%) after pre-incubation with compound [1, 4]: 2.06%
Esterase protection (%) after pre-incubation with compound [1, 5]: 2.06%

C#CCOc1cc(OC)c(OC)cc1CCC [Example 7, 1-(propargyloxy)-6-propyl-3,4-dimethoxybenzene]
Esterase protection (%) after pre-incubation with compound [1, 5]: 15.17%

CC#CCOc1cc(OC)c(OC)cc1CCC [Example 8, 1-(but-2-ynyloxy)-6-propyl-3,4-dimethoxybenzene]
Reduction of esterase protection, comparison in words [1]: better activity than compounds 4, 7, respectively
Esterase protection (%) after pre-incubation with compound [1, 5]: 5.09%

CC#CCOc1cc2c(cc1COCCOCCOCCCC)OCO2 [Example 9, 5-[2-(2-butoxyethoxy)-ethoxy]methyl-6-(but-2-ynyloxy)-benzo[1.3]dioxole]
Esterase protection (%) after pre-incubation with compound [1, 4]: 2.96%

CC#CCOc1cc2c(cc1CCC)CCO2 [Example 11, 6-(but-2-ynyloxy)-5-propyl-2,3-dihydrobenzofuran]
Esterase protection (%) after pre-incubation with compound [1, 4]: −1.17%

O=[N+]([O-])NC1=NCCN1Cc1ccc(Cl)nc1 [imidacloprid]
RF, resistance factor (LC50 resistant / LC50 susceptible population) (Myzus persicae; aphid clone 4106A (susceptible reference)): 1
LC50 (lethal concentration of imidacloprid to kill 50% of the population) (Myzus persicae; aphid clone 4106A (susceptible, S)): 1.6 ppm
RF, resistance factor (LC50 resistant / LC50 susceptible population) (Myzus persicae; aphid clone 5191A versus 4106A): 56.5
LC50 (lethal concentration of imidacloprid to kill 50% of the population) (Myzus persicae; aphid clone 5191A, FE4(R3) resistant): 90.5 ppm

CC1(C)C(C=C(Cl)Cl)C1C(=O)OC(C#N)c1cccc(Oc2ccccc2)c1 (stereo not drawn) [α-cypermethrin]
mortality at 0.3 ppm ([2]; 24 h, Lebork): 4.9%
mortality at 0.3 ppm ([2]; 24 h, Rogalin): 2.78%
mortality at 0.03 ppm ([2]; 24 h, UK population, 0.03 ppm α-cypermethrin alone): 13.6%
mortality at 0.3 ppm ([2]; Rogalin and Lebork): ~5%
LC50 (lethal concentration of α-cypermethrin to kill 50% of the population) ([3]; Lebork population (pyrethroid resistant, Poland)): 95.0 ηg/cm^2
RF, resistance factor (LC50 resistant / LC50 susceptible population) ([3]; Lebork versus UK population): 44
LC50 (lethal concentration of α-cypermethrin to kill 50% of the population) ([3]; Rogalin population (pyrethroid resistant, Poland)): 65.0 ηg/cm^2
RF, resistance factor (LC50 resistant / LC50 susceptible population) ([3]; Rogalin versus UK population): 23 and 23.21
LC50 (lethal concentration of α-cypermethrin to kill 50% of the population) ([3]; UK population (putative susceptible)): 2.80 ηg/cm^2
RF, resistance factor (LC50 resistant / LC50 susceptible population) ([3]; UK population (reference)): 1
